Data set [1] in a line: Oral bioavailability test, rat. The note with it: in vivo, 10 mg/kg dose. The protocol: All PK experiments are standard tests that performed in either WuXi PharmaTech or Charels River Laboratory. 4315 and 4485 (Orin 1001) were dosed PO as a suspension in 1% microcellulose (Sigma) and 50% Sucrouse (Sigma).
Another data set in a line: 7-day toxicity study. It is filed as in vivo. The note with it: cynomolgus monkey.
The test system of another data set is Hep3B-Luc cells. Nature of the data set: Orthotopic Hep3B-luc human liver xenograft model (Example 22). The data set is classed as in vivo, female BALB/c nude mice. The protocol: The tumor was inoculated by injecting Hep3B-Luc cells (established by WuXi AppTec R&D center) mixed with BD Matrigel in 20 μl (PBS:Matrigel=1:1) into the left lobe of the liver. […] Sorafenib was formulated with Cremophor® EL/ethanol (1:1) and purified water to form a solution of 9 mg/ml. […] Tumor weight was measured at the termination of study. T/Cweight value (in percent) was calculated using the formula: T/Cweight%=Tweight/Cweight×100%, while Tweight and Cweight were the mean tumor weights of the treated and the vehicle control groups, respectively.
On the technique in general: In xenograft studies the graft and the host belong to different species.

Data set [2] has as its system human ovarian carcinoma A2780 tumor cells. Nature of the data set: A2780 ovarian carcinoma xenograft (Example 18). The data set is classed as in vivo, female NCr nu/nu mice. The note with it: Orin 1001 300 mg/kg/day oral 28 days; paclitaxel 15 mg/kg iv weekly; endpoint 2000 mm^3 or Day 60. The protocol:
Orin 1001 was administered by oral gavage in a xenograft mouse model using female NCr nu/nu mice injected subcutaneously with human ovarian carcinoma A2780 tumor cells. Animals were assigned to 4 groups (n=6/group); Vehicle control administered by oral gavage for 28 days, Orin 1001 administered via oral gavage at 300 mg/kg/day for 28 consecutive days, paclitaxel administered weekly by iv at 15 mg/kg, or Orin 1001 administered in combination with paclitaxel.
The percent tumor growth delay was calculated using the following equation: TGD (%)=[T-C/C]×100, where T-C is the difference in time to tumor endpoint from Treated (T) and Control (C).

Data set [3] concerns human breast adenocarcinoma MDA-MB231 tumor cells. The data set is classed as in vivo. The protocol: Orin 1001 was administered by oral gavage in combination with paclitaxel in a xenograft mouse model using female NCr nu/nu mice injected subcutaneously with human breast adenocarcinoma MDA-MB231 tumor cells. To evaluate the effect of Orin 1001 in combination with paclitaxel on early, mid or late stage tumor growth, dosing was initiated either on Day 1 (when tumors reached 225-250 mm^3), Day 14 or Day 28 of tumor growth. Orin 1001 was administered via oral gavage at 300 mg/kg/day in combination with paclitaxel at 10 mg/kg iv, weekly (n=10/group) for up to 60 days.

For orientation: bioavailability means dose-corrected exposure relative to a reference, in per cent. The term NOAEL denotes the highest tested level that showed no adverse finding. As for `COc1cc2c(C)c(CC(=O)N3CCOCC3)c(=O)oc2c(C=O)c1O` [Orin 1001], the bioavailability in data set [1] turned out to be 52%. Also, the 5-fold safety margin in the data set “7-day toxicity study” is 750 mg/kg/day. In addition, in the data set “7-day toxicity study” (in vivo, read-out: No Observable Adverse Effect Level (NOAEL)), the NOAEL at 7 day turned out to be 150 mg/kg/day. Besides, in the data set with Hep3B-Luc cells (mean tumor weight treated / vehicle control, day 28), the “T/Cweight (%)” value is on record as 56%. For the same compound, the “Tumor Weight (g) at day 28” value with Hep3B-Luc cells (oral gavage 28 consecutive days, Orin 1001 80 mg/kg/day, sorafenib 45 mg/kg/day) is 2.68 ± 1.69 g. The “percent tumor growth delay (TGD)” value in data set [2] was 29%. Moreover, in data set [3] (300 mg/kg/day oral gavage with paclitaxel 10 mg/kg iv weekly, up to 60 days), the “clinical signs of toxicity” value is reported as “no clinical signs of toxicity”. The “tolerability of extended oral dosing” value in data set [3] (up to 60 consecutive days) is listed as “well tolerated”.

These data come from patent publication US20210260069A1, “IRE1a INHIBITOR IN COMBINATION WITH CANCER [sequence] AGENT FOR CANCER TREATMENT” (Fosun Orinove PharmaTech, Inc., priority 2018, published 2021).
